In PMC3445516 (PLoS ONE, 2012):
Like-named read-outs stand apart in the source and are kept apart here.

Tests used:
Assay in all cases: Ambit kinase profiling, competition binding
[1] = molecular target: T1, BMPR1B (Homo sapiens, UniProt O00238)
T1 construct: purchased Ambit Biosciences (KINOMEscan)
Experimental: (§1) Also included in the kinase profile are four isoforms of PKC (δ, ε, η, θ) and eight isoforms of CAMKs (CAMKIα, δ, γ; CAMKIIα, β, δ, γ; CAMK4).
(§2) The global kinase profiling experiment was performed by Ambit Biosciences.

[2] = molecular target: T2, CAMK4 (Homo sapiens, UniProt Q16566); details: for competition: 10 µM
T2 construct: purchased Ambit Biosciences (KINOMEscan)
T2 sequence (Q16566 1-473): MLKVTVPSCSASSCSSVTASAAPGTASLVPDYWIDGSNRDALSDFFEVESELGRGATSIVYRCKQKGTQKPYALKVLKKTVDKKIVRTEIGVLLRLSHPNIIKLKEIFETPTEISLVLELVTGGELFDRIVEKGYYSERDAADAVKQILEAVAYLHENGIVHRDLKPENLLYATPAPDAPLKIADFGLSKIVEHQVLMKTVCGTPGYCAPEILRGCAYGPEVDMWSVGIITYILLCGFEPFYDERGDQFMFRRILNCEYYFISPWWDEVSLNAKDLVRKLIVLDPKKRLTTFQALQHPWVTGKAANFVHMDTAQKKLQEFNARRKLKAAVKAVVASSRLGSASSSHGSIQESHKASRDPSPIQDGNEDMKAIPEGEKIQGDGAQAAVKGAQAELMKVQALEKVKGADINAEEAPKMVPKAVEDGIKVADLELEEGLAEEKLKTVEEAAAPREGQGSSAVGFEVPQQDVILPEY
Experimental: as §1, §2

[3] = molecular target: T3, CAMKIIβ (Homo sapiens, UniProt Q13554); details: for competition: CAMKIIβ, 10 µM
T3 construct: purchased Ambit Biosciences (KINOMEscan)
Experimental: as §1, §2

[4] = molecular target: T4, CDC2L2 (Homo sapiens, UniProt Q9UQ88)
T4 construct: purchased Ambit Biosciences (KINOMEscan)
T4 sequence (Q9UQ88 1-783): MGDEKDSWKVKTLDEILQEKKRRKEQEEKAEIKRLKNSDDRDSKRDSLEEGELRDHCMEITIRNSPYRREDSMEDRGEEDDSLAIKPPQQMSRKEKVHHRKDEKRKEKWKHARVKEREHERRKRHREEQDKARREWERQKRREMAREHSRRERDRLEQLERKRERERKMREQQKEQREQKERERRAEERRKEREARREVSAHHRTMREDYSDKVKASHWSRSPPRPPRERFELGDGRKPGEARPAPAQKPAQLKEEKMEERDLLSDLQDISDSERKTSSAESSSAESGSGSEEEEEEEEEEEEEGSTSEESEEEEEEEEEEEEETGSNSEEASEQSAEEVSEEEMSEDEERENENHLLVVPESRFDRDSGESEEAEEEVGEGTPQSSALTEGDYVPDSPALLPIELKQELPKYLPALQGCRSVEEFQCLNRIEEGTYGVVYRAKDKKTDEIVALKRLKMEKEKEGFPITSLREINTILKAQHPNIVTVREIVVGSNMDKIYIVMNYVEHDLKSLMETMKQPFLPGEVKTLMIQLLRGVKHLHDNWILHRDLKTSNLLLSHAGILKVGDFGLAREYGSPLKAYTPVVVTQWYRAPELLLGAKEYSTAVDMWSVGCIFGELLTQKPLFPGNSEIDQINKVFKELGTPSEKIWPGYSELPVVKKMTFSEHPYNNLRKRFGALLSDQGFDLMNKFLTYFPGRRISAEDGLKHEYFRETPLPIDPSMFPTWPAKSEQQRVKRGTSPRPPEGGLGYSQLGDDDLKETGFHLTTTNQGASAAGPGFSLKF
Experimental: as §1, §2

[5] = molecular target: T5, MEK3 (Homo sapiens, UniProt P46734)
T5 construct: purchased Ambit Biosciences (KINOMEscan)
T5 sequence (P46734 1-347): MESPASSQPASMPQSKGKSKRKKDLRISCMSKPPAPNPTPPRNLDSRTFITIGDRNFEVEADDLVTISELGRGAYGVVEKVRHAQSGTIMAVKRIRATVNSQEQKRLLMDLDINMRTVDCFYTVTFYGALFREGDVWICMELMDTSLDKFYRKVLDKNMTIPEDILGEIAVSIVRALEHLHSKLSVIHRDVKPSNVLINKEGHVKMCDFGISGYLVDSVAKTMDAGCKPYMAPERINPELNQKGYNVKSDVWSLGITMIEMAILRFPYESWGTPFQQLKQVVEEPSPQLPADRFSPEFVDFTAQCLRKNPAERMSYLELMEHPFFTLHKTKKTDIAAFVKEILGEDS
Experimental: as §1, §2

[6] = molecular target: T6, MUSK (Homo sapiens, UniProt O15146)
T6 construct: purchased Ambit Biosciences (KINOMEscan)
T6 sequence (O15146 24-869): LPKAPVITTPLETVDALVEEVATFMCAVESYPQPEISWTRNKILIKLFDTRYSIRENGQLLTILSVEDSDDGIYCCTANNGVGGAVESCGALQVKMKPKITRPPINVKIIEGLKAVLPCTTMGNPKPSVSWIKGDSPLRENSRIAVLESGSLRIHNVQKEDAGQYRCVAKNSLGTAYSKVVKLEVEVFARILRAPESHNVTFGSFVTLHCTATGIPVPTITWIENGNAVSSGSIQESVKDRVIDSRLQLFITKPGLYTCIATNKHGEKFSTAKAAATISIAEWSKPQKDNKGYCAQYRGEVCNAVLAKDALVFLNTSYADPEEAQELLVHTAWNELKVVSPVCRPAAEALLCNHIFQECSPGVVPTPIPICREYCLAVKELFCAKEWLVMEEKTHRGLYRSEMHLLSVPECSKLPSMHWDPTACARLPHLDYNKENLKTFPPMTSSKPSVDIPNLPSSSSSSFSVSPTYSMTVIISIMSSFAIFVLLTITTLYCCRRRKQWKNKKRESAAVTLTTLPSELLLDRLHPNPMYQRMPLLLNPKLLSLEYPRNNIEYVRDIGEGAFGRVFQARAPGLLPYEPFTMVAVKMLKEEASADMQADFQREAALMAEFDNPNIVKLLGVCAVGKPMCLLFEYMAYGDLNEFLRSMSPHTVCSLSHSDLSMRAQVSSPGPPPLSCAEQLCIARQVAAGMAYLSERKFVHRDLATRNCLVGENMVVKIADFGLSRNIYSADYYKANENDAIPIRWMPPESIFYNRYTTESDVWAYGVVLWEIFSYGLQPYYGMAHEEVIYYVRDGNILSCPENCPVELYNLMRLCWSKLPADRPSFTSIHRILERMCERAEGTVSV
Experimental: as §1, §2

[7] = molecular target: T7, p38-beta (Homo sapiens, UniProt Q15759)
T7 construct: purchased Ambit Biosciences (KINOMEscan)
Experimental: as §1, §2

[8] = compound concentration 10 uM, read-out: Percent Competition

T3 sequence (Q13554 whole entry): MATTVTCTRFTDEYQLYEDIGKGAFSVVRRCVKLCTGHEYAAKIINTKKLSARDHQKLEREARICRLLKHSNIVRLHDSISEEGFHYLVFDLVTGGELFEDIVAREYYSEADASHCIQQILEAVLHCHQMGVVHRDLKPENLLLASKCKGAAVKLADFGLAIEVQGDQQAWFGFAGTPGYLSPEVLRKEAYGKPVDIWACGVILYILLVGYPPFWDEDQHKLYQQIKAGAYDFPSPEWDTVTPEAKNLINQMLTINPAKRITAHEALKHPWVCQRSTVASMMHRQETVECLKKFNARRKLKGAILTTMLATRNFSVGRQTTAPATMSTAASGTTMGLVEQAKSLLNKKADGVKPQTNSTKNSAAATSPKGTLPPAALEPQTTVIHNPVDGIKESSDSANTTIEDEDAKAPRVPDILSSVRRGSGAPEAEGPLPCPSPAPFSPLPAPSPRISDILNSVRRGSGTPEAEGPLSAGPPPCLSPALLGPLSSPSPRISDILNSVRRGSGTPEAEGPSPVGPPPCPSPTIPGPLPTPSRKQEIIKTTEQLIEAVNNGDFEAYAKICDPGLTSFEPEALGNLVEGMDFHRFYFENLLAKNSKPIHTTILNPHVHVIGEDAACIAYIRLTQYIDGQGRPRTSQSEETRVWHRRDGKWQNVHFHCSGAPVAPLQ
T1 sequence (O00238 14-502): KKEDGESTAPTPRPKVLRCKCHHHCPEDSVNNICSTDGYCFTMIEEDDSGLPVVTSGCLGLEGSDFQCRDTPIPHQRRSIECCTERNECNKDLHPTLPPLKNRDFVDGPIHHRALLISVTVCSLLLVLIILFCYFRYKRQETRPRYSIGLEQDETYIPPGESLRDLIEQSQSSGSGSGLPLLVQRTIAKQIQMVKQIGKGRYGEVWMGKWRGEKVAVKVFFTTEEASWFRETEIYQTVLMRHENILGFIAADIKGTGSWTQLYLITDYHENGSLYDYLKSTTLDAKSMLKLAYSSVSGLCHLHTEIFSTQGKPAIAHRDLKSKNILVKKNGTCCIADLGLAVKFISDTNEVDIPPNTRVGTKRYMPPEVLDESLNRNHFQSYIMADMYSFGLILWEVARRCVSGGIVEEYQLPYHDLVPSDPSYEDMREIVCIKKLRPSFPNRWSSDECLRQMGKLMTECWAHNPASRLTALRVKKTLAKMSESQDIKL
T7 sequence (Q15759 whole entry): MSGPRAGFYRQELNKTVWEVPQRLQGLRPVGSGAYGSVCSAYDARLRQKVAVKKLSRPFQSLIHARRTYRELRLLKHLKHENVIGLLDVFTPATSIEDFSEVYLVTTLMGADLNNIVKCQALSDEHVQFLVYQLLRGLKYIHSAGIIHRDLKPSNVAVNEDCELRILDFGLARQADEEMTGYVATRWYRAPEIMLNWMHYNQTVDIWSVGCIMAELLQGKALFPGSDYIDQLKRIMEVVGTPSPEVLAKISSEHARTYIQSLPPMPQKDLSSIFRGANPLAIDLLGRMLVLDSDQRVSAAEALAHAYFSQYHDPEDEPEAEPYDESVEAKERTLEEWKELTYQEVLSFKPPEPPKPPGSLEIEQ

SMILES | inhibition at 10 µM ([1]; BMPR1B, 10 µM, read-out: % Competition) [%] | competition [2] [%] | competition [3] [%] | inhibition at 10 µM ([4]; CDC2L2, 10 µM, read-out: % Competition) [%] | inhibition at 10 µM ([5]; MEK3, 10 µM, read-out: % Competition) [%] | inhibition at 10 µM ([6]; MUSK, 10 µM, read-out: % Competition) [%] | inhibition at 10 µM ([7]; 10 µM, read-out: % Competition) [%] | inhibition at 10 µM ([1]; read-out: % Competition) [%] | inhibition at 10 µM ([4]; read-out: % Competition) [%] | inhibition at 10 µM ([5]; read-out: % Competition) [%] | inhibition at 10 µM ([6]; read-out: % Competition) [%] | % Competition ([7]; 10 µM) [%] | inhibition at 10 µM ([1]; BMPR1B, compound concentration 10 uM, read-out: Percent Competition) [%] | inhibition at 10 µM [2, 8] [%] | inhibition at 10 µM ([3]; CAMK2B, compound concentration 10 uM, read-out: Percent Competition) [%] | inhibition at 10 µM ([4]; CDC2L2, compound concentration 10 uM, read-out: Percent Competition) [%] | inhibition at 10 µM ([5]; MEK3, compound concentration 10 uM, read-out: Percent Competition) [%] | inhibition at 10 µM ([6]; MUSK, compound concentration 10 uM, read-out: Percent Competition) [%] | inhibition at 10 µM [7, 8] [%]
Fc1ccc(-c2c(-c3ccncc3)[nH]c3nccnc23)cc1 [Compound 122] | 81 | < 50 | < 50 | 92 | 99 | 94 | 100 |  |  |  |  |  |  |  |  |  |  |  | 
CC(O)CNc1cc(-c2[nH]c3cccnc3c2-c2ccc(F)cc2)ccn1 (stereo not drawn) [Compound 140] |  | < 50 | < 50 |  |  |  |  | < 50 | < 50 | < 50 | < 50 | 100 |  |  |  |  |  |  | 
Fc1ccc(-c2c(-c3ccncc3)[nH]c3nccnc23)cc1 [RO1155697-000-005] |  |  |  |  |  |  |  |  |  |  |  |  | 81 | < 50 | < 50 | 92 | 99 | 94 | 100
